The values below come from article PMC5342071, “A first generation inhibitor of human Greatwall kinase, enabled by structural and functional characterisation of a minimal kinase domain construct” (Oncotarget, 2016).

Common to all, as to assay type: biochemical
One series has as its target T1, PKA (Homo sapiens, UniProt P17612).
T1 construct: purchased Promega
The series is described as follows: PKA kinase assay (Promega). The protocol: (§1) hGWLFL, 100 µl of lysate was diluted 5-fold with IP buffer and combined with 3 µl anti-Flag M2 magnetic Dynabeads [Sigma-Aldrich] overnight at 4 °C. After sequential washes with IP buffer, 1:1 mix of IP and kinase assay buffers and a final wash in kinase assay buffer, the beads were then used in the kinase assay. The reaction was stopped by adding SDS loading buffer and analysed by western blot: p-ENSA and GWL levels were detected using the anti-phospho(Ser67)-ENSA and anti-MASTL(GWL, Prestige) antibodies. Activity was measured as the p-ENSA/GWL ratio and % kinase activity was normalised to the DMSO control. All kinases assays were repeated thrice per assay condition and each point on the concentration-dependent response curves represents the mean ± 1 S.D.
(§2) PKA, ROCK1 and CDK2 kinase assays […]
(§3) Data were normalised against the AllStars negative control siRNA treated cells and values obtained from 3 – 5 biological replicates were reported as the mean ± 1 S.D.

For another series, the target named is T2, ROCK1 (Homo sapiens, UniProt Q13464).
T2 construct: purchased Promega
T2 sequence (Q13464 whole entry): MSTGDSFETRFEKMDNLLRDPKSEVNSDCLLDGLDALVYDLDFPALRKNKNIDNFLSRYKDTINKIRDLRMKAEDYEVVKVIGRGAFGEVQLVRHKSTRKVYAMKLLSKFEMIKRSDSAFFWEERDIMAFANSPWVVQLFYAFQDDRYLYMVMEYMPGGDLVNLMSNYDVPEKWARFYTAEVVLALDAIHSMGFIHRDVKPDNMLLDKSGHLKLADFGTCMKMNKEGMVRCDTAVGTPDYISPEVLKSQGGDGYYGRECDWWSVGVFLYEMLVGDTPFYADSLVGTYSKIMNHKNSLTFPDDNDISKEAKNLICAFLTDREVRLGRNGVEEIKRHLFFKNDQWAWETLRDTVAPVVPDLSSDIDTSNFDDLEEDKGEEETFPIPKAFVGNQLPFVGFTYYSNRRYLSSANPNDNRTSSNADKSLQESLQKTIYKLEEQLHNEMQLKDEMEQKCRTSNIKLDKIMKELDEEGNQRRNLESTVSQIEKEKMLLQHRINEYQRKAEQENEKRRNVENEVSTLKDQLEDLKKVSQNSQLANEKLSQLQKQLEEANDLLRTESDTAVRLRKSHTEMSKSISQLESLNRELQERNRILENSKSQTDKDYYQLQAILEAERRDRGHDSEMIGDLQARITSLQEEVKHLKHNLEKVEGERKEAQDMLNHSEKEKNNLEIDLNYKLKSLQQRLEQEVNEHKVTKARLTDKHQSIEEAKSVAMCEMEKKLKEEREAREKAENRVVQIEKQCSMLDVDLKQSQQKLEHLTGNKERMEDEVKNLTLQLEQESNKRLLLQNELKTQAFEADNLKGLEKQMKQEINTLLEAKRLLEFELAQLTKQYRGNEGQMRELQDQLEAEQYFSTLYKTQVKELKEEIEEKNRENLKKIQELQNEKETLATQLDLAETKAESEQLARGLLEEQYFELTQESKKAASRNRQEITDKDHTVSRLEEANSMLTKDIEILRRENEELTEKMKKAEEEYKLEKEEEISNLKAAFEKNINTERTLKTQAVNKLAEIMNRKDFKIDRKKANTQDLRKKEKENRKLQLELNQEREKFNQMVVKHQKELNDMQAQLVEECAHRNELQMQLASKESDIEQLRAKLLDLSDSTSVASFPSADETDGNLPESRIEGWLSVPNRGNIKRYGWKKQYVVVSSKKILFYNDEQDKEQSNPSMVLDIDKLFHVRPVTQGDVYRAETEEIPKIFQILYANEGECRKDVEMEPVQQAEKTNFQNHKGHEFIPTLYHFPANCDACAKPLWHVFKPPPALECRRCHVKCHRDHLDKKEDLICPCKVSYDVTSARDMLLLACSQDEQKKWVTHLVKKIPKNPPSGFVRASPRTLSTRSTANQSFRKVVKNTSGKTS
Description: ROCK1 kinase assay (Promega). The protocol: as §1, §2, §3

A further series deals with T3, hGWL^FL (Homo sapiens, UniProt Q96GX5).
T3 construct: N-terminally FLAG-tagged full-length human GWL; made in house; host or cells: HEK293T cells, transfected and nocodazole-arrested; protein captured on anti-Flag M2 beads
T3 sequence (Q96GX5 1-879): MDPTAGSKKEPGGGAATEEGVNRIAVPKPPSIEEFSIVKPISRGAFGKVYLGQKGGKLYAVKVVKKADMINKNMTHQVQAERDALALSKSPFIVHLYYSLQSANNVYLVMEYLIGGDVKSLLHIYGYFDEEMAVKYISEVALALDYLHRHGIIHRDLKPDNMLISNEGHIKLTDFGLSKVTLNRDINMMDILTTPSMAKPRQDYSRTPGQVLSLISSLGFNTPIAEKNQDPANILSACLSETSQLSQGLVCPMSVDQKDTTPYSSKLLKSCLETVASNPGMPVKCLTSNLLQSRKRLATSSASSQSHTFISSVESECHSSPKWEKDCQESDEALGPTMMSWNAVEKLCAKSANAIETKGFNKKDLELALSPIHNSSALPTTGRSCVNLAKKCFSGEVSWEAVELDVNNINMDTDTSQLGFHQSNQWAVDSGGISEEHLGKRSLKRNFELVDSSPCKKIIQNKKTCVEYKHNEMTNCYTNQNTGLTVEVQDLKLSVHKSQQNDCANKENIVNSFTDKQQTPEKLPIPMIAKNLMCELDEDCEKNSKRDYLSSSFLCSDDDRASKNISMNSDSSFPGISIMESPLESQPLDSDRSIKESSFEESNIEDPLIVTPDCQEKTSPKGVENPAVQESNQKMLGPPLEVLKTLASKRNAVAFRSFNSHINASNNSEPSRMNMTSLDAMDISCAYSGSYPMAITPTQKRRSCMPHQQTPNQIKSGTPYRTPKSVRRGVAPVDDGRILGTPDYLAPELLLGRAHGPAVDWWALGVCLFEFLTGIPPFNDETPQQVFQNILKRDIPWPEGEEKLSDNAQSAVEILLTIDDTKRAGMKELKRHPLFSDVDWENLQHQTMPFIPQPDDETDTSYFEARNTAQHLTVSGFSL
The series is described as follows: Immunoprecipitation kinase assay with Flag-tagged hGWL^FL (p-ENSA western). The note with it: for IC50: immunoprecipitated Flag-tagged hGWL^FL, read-out: IC50 GWL^FL; for inhibition of hGWL^FL (result in words): immunoprecipitation kinase assay. The protocol:
500 mM NaCl, and 0.5 mM TCEP) diluted to desired concentration or immunoprecipitated hGWL on beads with ultra-pure ATP [Promega, 25 µM] and His-tagged substrate  α-endosulfine (ENSA, 2 µM) in kinase assay buffer (50 mM Tris-HCl pH 7.5, 0.5 mM EGTA, 150 mM NaCl, 0.1% v/v NP-40 and 15 mM MgCl2). The […]
(dithiothreitol), 50% v/v Glycerol, 10% v/v SDS (sodium dodecyl sulphate), and 0.25M Tris-HCl pH 6.8) or Kinase-Glo Max reagent [Promega]. Recombinant His-tagged ENSA was purified using Ni-NTA agarose [QIAGEN] from BL21 E. coli following the manufacturer’s recommended protocol. […]
(§4) All kinase assays were repeated thrice per assay condition and each point on the concentration-dependent response curves represents the mean ± […]
Immunoprecipitation Kinase Assay
HEK293T cells were transfected with 10 µg of plasmid (Flag-tagged hGWLFL or GFP; pcDNA3-EGFP, Addgene, Cambridge MA, USA) using CaCl2. […]
incubated for a further 16–18 h. Cells were collected and washed in PBS-A followed by lysis on ice for 20 min in 1mL IP buffer (50 mM Tris-HCl pH 7.5, 150 mM NaCl, 10% v/v glycerol, 0.5% v/v NP-40, 1 mM EDTA supplemented with protease and phosphatase inhibitors (Complete and PhosStop; Roche Diagnostics)). Samples were then sonicated and clarified by centrifugation at 13,000 rpm for 30 min at 4°C. To capture Flag-tagged […]
as §1, with “S.D. […]” for “S.D.”

In series [1] the target is T4, hGWL-KinDom (Homo sapiens, UniProt Q96GX5).
T4 construct: that encoded amino acids (aa) 1-194 + ‘RTFC’ + 740-879 of hGWL; GST (rhinovirus 3C-protease cleavable) (N, cleaved yes); made in house; host or cells: E. coli Rosetta2(DE3)
T4 sequence (Q96GX5 with tags, fused parts or gaps limits assumed): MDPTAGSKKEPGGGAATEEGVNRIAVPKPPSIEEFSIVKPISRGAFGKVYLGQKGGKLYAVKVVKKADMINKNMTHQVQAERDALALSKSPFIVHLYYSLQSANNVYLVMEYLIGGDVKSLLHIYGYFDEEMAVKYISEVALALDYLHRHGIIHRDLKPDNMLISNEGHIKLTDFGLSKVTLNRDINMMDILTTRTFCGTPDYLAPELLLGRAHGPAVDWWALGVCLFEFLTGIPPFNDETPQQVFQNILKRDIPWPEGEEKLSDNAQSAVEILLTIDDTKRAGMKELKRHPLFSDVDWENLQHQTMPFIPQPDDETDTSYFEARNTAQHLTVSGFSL
The series is described as follows: Kinase-Glo Max luminescence kinase assay with hGWL-KinDom. To be noted: for Km / kcat: substrate of hGWL-KinDom, Kinase-Glo Max. The procedure:
Non-radioactive kinase assays were set-up by combining hGWL-KinDom (305 µM in 20 mM HEPES pH 7.5, FL 500 mM NaCl, and 0.5 mM TCEP) diluted to desired concentration or immunoprecipitated hGWL on beads with ultra-pure ATP [Promega, 25 µM] and His-tagged substrate  α-endosulfine (ENSA, 2 µM) in kinase assay buffer (50 mM Tris-HCl pH 7.5, 0.5 mM EGTA, 150 mM NaCl, 0.1% v/v NP-40 and 15 mM MgCl2). The reaction was allowed to proceed for 30 min at 37 °C or another indicated time-point after which it was stopped with either SDS loading buffer (5X buffer, including 0.25 % w/v Bromophenol blue, 0.5 M DTT (dithiothreitol), 50% v/v Glycerol, 10% v/v SDS (sodium dodecyl sulphate), and 0.25M Tris-HCl pH 6.8) or Kinase-Glo Max reagent [Promega]. Recombinant His-tagged ENSA was purified using Ni-NTA agarose [QIAGEN] from BL21 E. coli following the manufacturer’s recommended protocol. […]
as §4
After stopping the above non-radioactive kinase assay with 1 volume of Kinase-Glo Max reagent the mixture was allowed to incubate for a further 15 min. To detect consumption of ATP, samples were transferred to white, flat-bottom 96-well plates [Thermo Fisher Scientific, Loughborough, UK] and luminescence was detected using a POLARstar Omega micro-plate reader [BMG Labtech GmbH, Ortenberg, Germany]. As this assay measures ATP, activity or ATP turnover was measured as the -ΔRLU. […]

Series [2] concerns the target T4, hGWL-KinDom. Description: Inhibitor screen of pooled library with hGWL-KinDom (Kinase-Glo Max). To be noted: for inhibition at 10 µM: 10 μM screening concentration, ATP concentration = 45 μM; for Rank in inhibitor screen: rank by potency in the screen. The procedure: Two small-molecule compound libraries, enriched with pharmacophores known to interact with the ATP-binding site of protein kinases, were screened as a pooled library in a Kinase-GloMax luminescence-kinase assay. page 4: […] Dynabeads [Sigma-Aldrich] overnight at 4 °C. After sequential washes with IP buffer, 1:1 mix of IP and kinase assay buffers and a final wash in kinase assay buffer, the beads were then used in the kinase assay. The reaction was stopped by adding SDS loading buffer and analysed by western blot: p-ENSA and GWL levels were detected using the anti-phospho([…] and […], Prestige) antibodies. Activity was measured as the […] ratio and % kinase activity was normalised to the DMSO control. All kinases assays were repeated thrice per assay condition and each point on the concentration-dependent response curves represents the mean ± 1 S.D. PKA, ROCK1 and CDK2 kinase assays PKA and ROCK1 assays (Promega) were carried out according to the manufacturer's protocols and CDK2 assays were carried out with Histone H1 as substrate (1 µg per 20 µl reaction) according to our Kinase-Glo Max assay. CDK2 was expressed and purified from E. coli as previously described (10). Inhibitor Screens with hGWL-KinDom Two small-molecule compound libraries, enriched with pharmacophores known to interact with the ATP- binding site of protein kinases, were kindly provided by GlaxoSmithKline and Roche. We used this pooled library (582 compounds, 10 µM screening concentrations) in a Kinase-Glo Max luminescence kinase assay (11, 12) as part of a two-point screen against hGWL-KinDom kinase activity, using ATP at fixed concentrations of […] With STU as positive control at a […] 4A,B). […] rate = 5.8%; Supplementary Figure 4A). Molecular Docking - AutoDock AT13148 and GKI-1/2 were docked into the ATP-binding site of the hGWL-KinDom crystal structure (where the disordered C-helix was homology-modelled) using AutoDock 4.2.6. PDB format files for the ligand and kinase domain were pre-processed using AutoDock Tools 1.5.6 as described in Mohamed, et al. (13). (Figure 4 and Supplementary Figure 6A,B). Immunofluorescence and Time-lapse video microscopy 2.5 X 105 HeLa cells were plated onto glass coverslips in a 6-well plate, or 4-well µ-slides [Ibidi GmbH] were seeded with 5 X 104 cells and then transfected with Qiagen AllStars negative control or Hs_MASTL_6 siRNAs (14) using Lipofectamine RNAiMax [ThermoFisher Scientific]. Media was exchanged with fresh media the next day. 48 hours after siRNA treatment, only cells to be used for immunofluorescence (IF) were treated with nocodazole (200 ng/mL) and DMSO or GKI-1 at the indicated concentration. For IF, cells were fixed, stained with primary mouse anti-GWL and rabbit anti-p-ENSA antibodies, secondary Alexa Fluor 647-conjugated anti- rabbit and Alexa Fluor 488-conjugated anti-mouse antibodies, DAPI and mounted onto glass microscope slides using Diamond Antifade Mountant [Molecular Probes, ThermoFisher Scientific]. Quantitation of IF images was performed using the […]-Content Screening Station [Olympus Life Science] which acquired 220, 40x images per cover slip. Data were normalised against the AllStars negative control siRNA treated cells and values obtained from three biological replicates were reported as the mean ± 1 S.D. To assist with selecting mitotic cells, ScanR imaging software was utilised to gate for mitotic cells using the circularity factor and total DAPI parameters. To produce time-lapse videos, after 48 hours and cell treatment with DMSO or compound (cells were treated with GKI-1 for 4-h before image acquisition) cells plated in 4-well µ-slides were imaged every 5 minutes for 8.5 hours on an Olympus IX73 microscope, using a 40 x 0.95NA air objective, and recorded on an Orca-Flash 4.0 CMOS camera [Hamatsu]. The computer program Fiji (http://www.fiji.sc/Fiji) was used to generate videos from image sequence TIF files. Data were normalised against the AllStars negative control siRNA treated cells and […]
On the technique in general: Kinase-Glo measures the ATP left after a reaction by luminescence.

Where only a bound is given, the exact number is not on record here.

As for `NC[C@@](O)(c1ccc(Cl)cc1)c1ccc(-c2cn[nH]c2)cc1` [AT13148, reference compound], the concentration for half-maximal inhibition (IC50) on PKA (refers to Table 2) was around 11 nM; on PKA (± S.D.) it was 6.13 ± 2 nM; against ROCK1 (refers to Table 2) it was around 6 nM; at ROCK1 (± S.D.), 11.4 ± 4 nM; at hGWL^FL, 5900 nM; at hGWL-KinDom [1] (Kinase-Glo Max assay, read-out: IC50 GWL-KinDom) it was 125 ± 1.7 nM. Further, on hGWL^FL (for GKI-1: EC50 hGWL^FL vs IC50 hGWL-KinDom), the “inhibitory ratio (IC50 GWL^FL/IC50 GWL-KinDom)” value was determined as 45. Besides, the “AT13148 IC50/STU IC50” value on hGWL^FL (hGWL^FL inhibition) is on record as ~ 2.
In the case of `Clc1ccc(Nc2ccc(-c3cn[nH]c3)cc2)cc1` [GKI-2, N-(4-chorophenyl)-4-(1H-pyrazol-4-yl)aniline], the “inhibition of hGWL^FL (result in words)” value on hGWL^FL was “did not demonstrably inhibit”.
As for `CNC(C#Cc1c(F)ccc2c1C(=Cc1[nH]ccc1OC)C(=O)N2)CO` (stereo not drawn) [GRI-2], on hGWL-KinDom [2], the inhibition at 10 µM worked out at 37% and the “Rank in inhibitor screen” value is on record as 5. At hGWL^FL, the IC50 is above 100000 nM and the “inhibition of hGWL^FL (result in words)” value was “did not demonstrably inhibit”.
In the case of `Nc1ncnc2c1ncn2[C@@H]1O[C@H](COP(=O)(O)OP(=O)(O)OP(=O)(O)O)[C@@H](O)[C@H]1O` [ATP], at hGWL-KinDom [1], the Km was determined as 17.2 ± 2.4 µM and the kcat came out at 10.4 ± 0.48 s⁻¹.
Consider `COc1cc[nH]c1/C=C1\C(=O)Nc2ccc(F)c(C#CC3(O)CCNCC3)c21` [GRI-1], for which, at hGWL-KinDom [2], the inhibition at 10 µM was 67.6% and the “Rank in inhibitor screen” value turned out to be 1. Moreover, at hGWL^FL, the IC50 was above 100000 nM and the “inhibition of hGWL^FL (result in words)” value is “did not demonstrably inhibit”.

B1: ENSA: His-tagged recombinant α-endosulfine, GWL substrate (protein, UniProt O43768 2-121, looked up)
Alpha-endosulfine: SQKQEEENPAEETGEEKQDTQEKEGILPERAEEAKLKAKYPSLGQKPGGSDFLMKRLQKGQKYFDSGDYNMAKAKMKNKQLPSAGPDKNLVTGDHIPTPQDLPQRKSSLVTSKLAGGQVE
modifications: His tag
notes: His-tagged recombinant α-endosulfine, GWL substrate
Take B1: in the series with hGWL-KinDom [1], the Km was found to be 1.6 ± 0.3 µM and the kcat amounted to 0.2 ± 0.01 s⁻¹.

What is called IC50 is the concentration that gives 50% inhibition. One may read the inhibition as the percentage by which the read-out fell short of the control. For orientation: Km means the concentration of substrate that gives half-maximal velocity. By kcat is commonly meant the number of substrate molecules converted per active site and unit of time at saturation.
